Measurements: patent US7709636B2, “Pyrazole sulfonylurea compound and herbicide” (Nissan Chemical Industries, Ltd., priority 2004, dated 2010)

What was measured:
Echinochloa crus-galli [1] = test: Herbicidal effect test in submerged condition by treatment before weed-generation (1); format: in vivo; settings: 0.64 g/a, water surface treated on day of sowing, 3 weeks after treatment
Excerpt: (§1) Herbicidal Effect Test in Submerged Condition by Treatment Before Weed-Generation (1)
(§2) After alluvial soil was placed in a styrol cup of 1/30000 are, water was poured therein and mixed, and adjusted to a submerged condition of water depth 4 cm. After seeds of Echinochloa crus-galli, Scirpus juncoides and Monochoria vaginalis were sown in the cup, rice seedlings at 2.5th leaf stage were transplanted. On the day when the seeds were sown, the wettable powder of the present invention prepared according to Formulation Example 1 was diluted with water so as to give a predetermined formulation amount, and the surface of the water was treated with the diluted wettable powder. The plants were grown by putting the cup in a green house at 25 to 30° C., and investigated on herbicidal effect against each weed 3 weeks after treatment with the herbicide according to the following criteria.
(§3) 5 Herbicidal rate 90% or more (almost complete death)
(§4) 4 Herbicidal rate 70% or more and less than 90%
(§5) 3 Herbicidal rate 40% or more and less than 70%
(§6) 2 Herbicidal rate 20% or more and less than 40%
(§7) 1 Herbicidal rate 5% or more and less than 20%
(§8) 0 Herbicidal rate 5% or less (little effect)

Monochoria vaginalis [2] = test: as above; format: in vivo; settings: 0.64 g/a, water surface treated on day of sowing, 3 weeks after treatment
Excerpt: as §1, §2, §3, §4, §5, §6, §7, §8

Scirpus juncoides [3] = test: as above; format: in vivo; settings: 0.64 g/a, water surface treated on day of sowing, 3 weeks after treatment
Excerpt: as §1, §2, §3, §4, §5, §6, §7, §8

Echinochloa crus-galli [4] = test: Herbicidal effect test in submerged condition by treatment during weed-growth stage (1); format: in vivo; settings: 0.64 g/a, treated at 1st to 2nd leaf stage, 3 weeks after treatment
Experimental: (§9) Herbicidal Effect Test in Submerged Condition by Treatment During Weed-Growth Stage (1) After alluvial soil was placed in a styrol cup of 1/30000 are, water was poured therein and mixed, and adjusted to a submerged condition of water depth 4 cm. After seeds of Echinochloa crus-galli, Scirpus juncoides and Monochoria vaginalis were sown in the cup, the plants were grown by putting the cup in a green house at 25 to 30° C. When Echinochloa crus-galli, Scirpus juncoides and Monochoria vaginalis reached 1st to 2nd leaf stage, the wettable powder of the present invention prepared according to Formulation Example 1 was diluted with water so as to give a predetermined formulation amount, and the surface of the water was treated with the diluted wettable powder. The herbicidal effect for each plant was investigated 3 weeks after treatment with the herbicide according to the criteria indicated in Test Example 1.

Monochoria vaginalis [5] = test: as above; format: in vivo; settings: 0.64 g/a, treated at 1st to 2nd leaf stage, 3 weeks after treatment
Experimental: as §9

Scirpus juncoides [6] = test: as above; format: in vivo; settings: 0.64 g/a, treated at 1st to 2nd leaf stage, 3 weeks after treatment
Experimental: as §9

Abutilon avicennae [7] = test: Herbicidal effect test by soil treatment; format: in vivo; settings: 1.6 g/a, 3 weeks after treatment
Excerpt: (§10) Herbicidal Effect Test by Soil Treatment
(§11) Sterilized diluvial soil was placed in a plastic box having a size of length 21 cm, width 13 cm and depth 7 cm, seeds Echinochloa crus-galli, Digitaria adscendes, Setaria viridis, Avena fatua, Black-grass, Abutilon avicennae, Ambrosia elatior, Amaranthus retroflexus, Chenopodium album, Polygonum blumei, Stellaria media, Zea mays (corn), Glycine max (soybean), Oryza sativa (rice), Triticum aestivum (wheat) and Beta vulgaris (beat) were sown interspatially, covered with about 1.5 cm of soil, and then the wettable powder of the present invention prepared according to Formulation Example 1 was diluted with water so as to give a predetermined formulation amount, and the surface of the soil was uniformly treated with the diluted wettable powder by use of a small-sized spray. The herbicidal effect for each plant was investigated 3 weeks after treatment with the herbicide according to the criteria indicated in Test Example 1.

Amaranthus retroflexus [8] = test: Herbicidal effect test by soil treatment; format: in vivo; settings: 1.6 g/a, 3 weeks after treatment
Excerpt: as §10, §11

Ambrosia elatior [9] = test: Herbicidal effect test by soil treatment; format: in vivo; settings: 1.6 g/a, 3 weeks after treatment
Excerpt: as §10, §11

Avena fatua [10] = test: Herbicidal effect test by soil treatment; format: in vivo; settings: 1.6 g/a, 3 weeks after treatment
Excerpt: as §10, §11

Beta vulgaris (beet) [11] = test: Herbicidal effect test by soil treatment; format: in vivo; settings: 1.6 g/a, 3 weeks after treatment
Excerpt: as §10, §11

Black-grass = test: Herbicidal effect test by soil treatment; format: in vivo; settings: 1.6 g/a, 3 weeks after treatment
Excerpt: as §10, §11

Chenopodium album [12] = test: Herbicidal effect test by soil treatment; format: in vivo; settings: 1.6 g/a, 3 weeks after treatment
Excerpt: as §10, §11

Digitaria adscendes [13] = test: Herbicidal effect test by soil treatment; format: in vivo; settings: 1.6 g/a, 3 weeks after treatment
Excerpt: as §10, §11

Echinochloa crus-galli [14] = test: Herbicidal effect test by soil treatment; format: in vivo; settings: 1.6 g/a, 3 weeks after treatment
Excerpt: as §10, §11

Polygonum blumei [15] = test: Herbicidal effect test by soil treatment; format: in vivo; settings: 1.6 g/a, 3 weeks after treatment
Excerpt: as §10, §11

Setaria viridis [16] = test: Herbicidal effect test by soil treatment; format: in vivo; settings: 1.6 g/a, 3 weeks after treatment
Excerpt: as §10, §11

Stellaria media [17] = test: Herbicidal effect test by soil treatment; format: in vivo; settings: 1.6 g/a, 3 weeks after treatment
Excerpt: as §10, §11

[18] = test system: Triticum aestivum (wheat); test: Herbicidal effect test by soil treatment; format: in vivo; settings: 1.6 g/a, 3 weeks after treatment
Excerpt: as §10, §11

corn (Zea mays) [19] = test: Herbicidal effect test by soil treatment; format: in vivo; settings: 1.6 g/a, 3 weeks after treatment
Excerpt: as §10, §11

soybean (Glycine max) [20] = test: Herbicidal effect test by soil treatment; format: in vivo; settings: 1.6 g/a, 3 weeks after treatment
Excerpt: as §10, §11

direct sown rice [21] = test: Herbicidal effect test by soil treatment; format: in vivo, Oryza sativa; settings: 1.6 g/a, 3 weeks after treatment
Excerpt: as §10, §11

Abutilon avicennae [22] = test: Herbicidal effect test by foliage treatment; format: in vivo; settings: 1.6 g/a; foliage treatment after growth of 14 days; 3 weeks after treatment
Excerpt: (§12) Herbicidal Effect Test by Foliage Treatment
(§13) Sterilized diluvial soil was placed in a plastic box having a size of length 21 cm, width 13 cm and depth 7 cm, seeds of Echinochloa crus-galli, Digitaria adscendes, Setaria viridis, Avena fatua, Black-grass, Abutilon avicennae, Ambrosia elatior, Amaranthus retroflexus, Chenopodium album, Polygonum blumei, Stellaria media, Zea mays, Glycine max, Oryza sativa, Triticum aestivum and Beta vulgaris were sown interspatially, covered with about 1.5 cm of soil, and then the plants were grown by putting the box in a green house at 25 to 30° C. After growth of 14 days, the wettable powder of the present invention prepared according to Formulation Example 1 was diluted with water so as to give a predetermined formulation amount, and the foliage part was uniformly treated with the diluted wettable powder by use of a small-sized spray. The herbicidal effect for each plant was investigated 3 weeks after treatment with the herbicide according to the criteria indicated in Test Example 1.

Amaranthus retroflexus [23] = test: Herbicidal effect test by foliage treatment; format: in vivo; settings: 1.6 g/a; foliage treatment after growth of 14 days; 3 weeks after treatment
Excerpt: as §12, §13

Ambrosia elatior [24] = test: Herbicidal effect test by foliage treatment; format: in vivo; settings: 1.6 g/a; foliage treatment after growth of 14 days; 3 weeks after treatment
Excerpt: as §12, §13

Avena fatua [25] = test: Herbicidal effect test by foliage treatment; format: in vivo; settings: 1.6 g/a; foliage treatment after growth of 14 days; 3 weeks after treatment
Excerpt: as §12, §13

Beta vulgaris (beet) [26] = test: Herbicidal effect test by foliage treatment; format: in vivo; settings: 1.6 g/a; foliage treatment after growth of 14 days; 3 weeks after treatment
Excerpt: as §12, §13

Chenopodium album [27] = test: Herbicidal effect test by foliage treatment; format: in vivo; settings: 1.6 g/a; foliage treatment after growth of 14 days; 3 weeks after treatment
Excerpt: as §12, §13

Digitaria adscendes [28] = test: Herbicidal effect test by foliage treatment; format: in vivo; settings: 1.6 g/a; foliage treatment after growth of 14 days; 3 weeks after treatment
Excerpt: as §12, §13

Echinochloa crus-galli [29] = test: Herbicidal effect test by foliage treatment; format: in vivo; settings: 1.6 g/a; foliage treatment after growth of 14 days; 3 weeks after treatment
Excerpt: as §12, §13

Polygonum blumei [30] = test: Herbicidal effect test by foliage treatment; format: in vivo; settings: 1.6 g/a; foliage treatment after growth of 14 days; 3 weeks after treatment
Excerpt: as §12, §13

Setaria viridis [31] = test: Herbicidal effect test by foliage treatment; format: in vivo; settings: 1.6 g/a; foliage treatment after growth of 14 days; 3 weeks after treatment
Excerpt: as §12, §13

Stellaria media [32] = test: Herbicidal effect test by foliage treatment; format: in vivo; settings: 1.6 g/a; foliage treatment after growth of 14 days; 3 weeks after treatment
Excerpt: as §12, §13

[33] = test system: Triticum aestivum (wheat); test: Herbicidal effect test by foliage treatment; format: in vivo; settings: 1.6 g/a; foliage treatment after growth of 14 days; 3 weeks after treatment
Excerpt: as §12, §13

corn (Zea mays) [34] = test: Herbicidal effect test by foliage treatment; format: in vivo; settings: 1.6 g/a; foliage treatment after growth of 14 days; 3 weeks after treatment
Excerpt: as §12, §13

soybean (Glycine max) [35] = test: Herbicidal effect test by foliage treatment; format: in vivo; settings: 1.6 g/a; foliage treatment after growth of 14 days; 3 weeks after treatment
Excerpt: as §12, §13

direct sown rice [36] = test: Herbicidal effect test by foliage treatment; format: in vivo, Oryza sativa; settings: 1.6 g/a; foliage treatment after growth of 14 days; 3 weeks after treatment
Excerpt: as §12, §13

COc1cc(OC)nc(NC(=O)NS(=O)(=O)c2c(C3=NOCC(C)(C)O3)c(Cl)nn2C)n1 [Compound 3, N-((4,6-dimethoxypyrimidin-2-yl)aminocarbonyl)-3-chloro-4-(5,5-dimethyl-5H,6H-1,4,2-dioxadin-3-yl)-1-methylpyrazole-5-sulfonamide]
herbicidal effect, A: Echinochloa crus-galli (Echinochloa crus-galli [1]): 5 (Herbicidal rate 90% or more (almost complete death)) | herbicidal effect, C: Monochoria vaginalis (Monochoria vaginalis [2]): 5 (Herbicidal rate 90% or more (almost complete death)) | herbicidal effect, B: Scirpus juncoides (Scirpus juncoides [3]): 5 (Herbicidal rate 90% or more (almost complete death)) | herbicidal effect, A: Echinochloa crus-galli (Echinochloa crus-galli [4]): 5 (Herbicidal rate 90% or more (almost complete death)) | herbicidal effect, C: Monochoria vaginalis (Monochoria vaginalis [5]): 5 (Herbicidal rate 90% or more (almost complete death)) | herbicidal effect, B: Scirpus juncoides (Scirpus juncoides [6]): 5 (Herbicidal rate 90% or more (almost complete death)) | herbicidal effect, H: Abutilon avicennae (Abutilon avicennae [7]): 5 (Herbicidal rate 90% or more (almost complete death)) | herbicidal effect, J: Amaranthus retroflexus (Amaranthus retroflexus [8]): 4 (Herbicidal rate 70% or more and less than 90%) | herbicidal effect, I: Ambrosia elatior (Ambrosia elatior [9]): 5 (Herbicidal rate 90% or more (almost complete death)) | herbicidal effect, F: Avena fatua (Avena fatua [10]): 0 (Herbicidal rate 5% or less (little effect)) | herbicidal effect, f: Beta vulgaris (beet) (Beta vulgaris (beet) [11]): 4 (Herbicidal rate 70% or more and less than 90%) | herbicidal effect, G: Black-grass (Black-grass): 3 (Herbicidal rate 40% or more and less than 70%) | herbicidal effect, K: Chenopodium album (Chenopodium album [12]): 3 (Herbicidal rate 40% or more and less than 70%) | herbicidal effect, D: Digitaria adscendes (Digitaria adscendes [13]): 2 (Herbicidal rate 20% or more and less than 40%) | herbicidal effect, A: Echinochloa crus-galli (Echinochloa crus-galli [14]): 2 (Herbicidal rate 20% or more and less than 40%) | herbicidal effect, L: Polygonum blumei (Polygonum blumei [15]): 5 (Herbicidal rate 90% or more (almost complete death)) | herbicidal effect, E: Setaria viridis (Setaria viridis [16]): 0 (Herbicidal rate 5% or less (little effect)) | herbicidal effect, M: Stellaria media (Stellaria media [17]): 5 (Herbicidal rate 90% or more (almost complete death)) | herbicidal effect, e: Triticum aestivum (wheat) [18]: 0 (Herbicidal rate 5% or less (little effect)) | herbicidal effect, b: corn (Zea mays) (corn (Zea mays) [19]): 3 (Herbicidal rate 40% or more and less than 70%) | herbicidal effect, c: soybean (Glycine max) (soybean (Glycine max) [20]): 1 (Herbicidal rate 5% or more and less than 20%) | herbicidal effect, d: direct sown rice (direct sown rice [21]): 0 (Herbicidal rate 5% or less (little effect)) | herbicidal effect, H: Abutilon avicennae (Abutilon avicennae [22]): 5 (Herbicidal rate 90% or more (almost complete death)) | herbicidal effect, J: Amaranthus retroflexus (Amaranthus retroflexus [23]): 0 (Herbicidal rate 5% or less (little effect)) | herbicidal effect, I: Ambrosia elatior (Ambrosia elatior [24]): 5 (Herbicidal rate 90% or more (almost complete death)) | herbicidal effect, F: Avena fatua (Avena fatua [25]): 0 (Herbicidal rate 5% or less (little effect)) | herbicidal effect, f: Beta vulgaris (beet) (Beta vulgaris (beet) [26]): 3 (Herbicidal rate 40% or more and less than 70%) | herbicidal effect, K: Chenopodium album (Chenopodium album [27]): 2 (Herbicidal rate 20% or more and less than 40%) | herbicidal effect, D: Digitaria adscendes (Digitaria adscendes [28]): 3 (Herbicidal rate 40% or more and less than 70%) | herbicidal effect, A: Echinochloa crus-galli (Echinochloa crus-galli [29]): 4 (Herbicidal rate 70% or more and less than 90%) | herbicidal effect, L: Polygonum blumei (Polygonum blumei [30]): 3 (Herbicidal rate 40% or more and less than 70%) | herbicidal effect, E: Setaria viridis (Setaria viridis [31]): 2 (Herbicidal rate 20% or more and less than 40%) | herbicidal effect, M: Stellaria media (Stellaria media [32]): 5 (Herbicidal rate 90% or more (almost complete death)) | herbicidal effect, e: Triticum aestivum (wheat) [33]: 0 (Herbicidal rate 5% or less (little effect)) | herbicidal effect, b: corn (Zea mays) (corn (Zea mays) [34]): 4 (Herbicidal rate 70% or more and less than 90%) | herbicidal effect, c: soybean (Glycine max) (soybean (Glycine max) [35]): 5 (Herbicidal rate 90% or more (almost complete death)) | herbicidal effect, d: direct sown rice (direct sown rice [36]): 0 (Herbicidal rate 5% or less (little effect))
